In data set [1] the target is T1, human amylin receptor (amylin 3(a) receptor: human calcitonin receptor + RAMP-3) (Homo sapiens, UniProt O60896+P30988).
T1 construct: expressed in transfected cells; host or cells: BHK570
T1 sequence (P30988 25-474): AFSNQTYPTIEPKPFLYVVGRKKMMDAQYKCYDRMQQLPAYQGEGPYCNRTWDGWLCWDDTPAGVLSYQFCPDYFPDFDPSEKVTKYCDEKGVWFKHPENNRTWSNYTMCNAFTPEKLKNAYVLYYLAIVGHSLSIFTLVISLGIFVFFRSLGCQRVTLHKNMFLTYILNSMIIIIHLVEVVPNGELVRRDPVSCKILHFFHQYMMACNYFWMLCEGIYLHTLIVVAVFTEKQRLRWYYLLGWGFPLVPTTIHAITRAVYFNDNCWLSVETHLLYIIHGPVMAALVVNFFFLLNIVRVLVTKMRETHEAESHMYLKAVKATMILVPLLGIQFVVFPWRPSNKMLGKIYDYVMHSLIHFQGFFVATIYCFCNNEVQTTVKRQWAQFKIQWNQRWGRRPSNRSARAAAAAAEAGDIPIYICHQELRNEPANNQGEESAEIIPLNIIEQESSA
T1 sequence (O60896 24-148 partner): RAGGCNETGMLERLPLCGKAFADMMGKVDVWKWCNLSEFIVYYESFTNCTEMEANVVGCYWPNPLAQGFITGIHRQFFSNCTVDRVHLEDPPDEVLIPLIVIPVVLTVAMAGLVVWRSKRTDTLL
Description: Assay (II)a functional CRE-luciferase assay, human amylin receptor. Type of data set: cell-based.

Data set [2] addresses T2, human calcitonin receptor (Homo sapiens, UniProt P30988).
T2 construct: expressed in transfected cells; host or cells: BHK570
T2 sequence (P30988 25-474): T1 sequence (P30988 25-474)
Briefly: Assay (II)a functional CRE-luciferase assay, human calcitonin receptor. It counts as cell-based. The settings on record: Table 7; human calcitonin (CTa) receptor.

A short description of data set [3]: Assay (III) ThT fibrillation assay for physical stability. It counts as physicochemical. Conditions: ThT fibrillation assay. The gist of the method: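 Freshly prepared formulations, pH-adjusted, with 1 μM ThT; four or eight replicates incubated at 37 °C under 960 rpm orbital shaking. Fluorescence (ex 444/em 485 nm) read every 20 min; […]. Peptide concentration measured by RP-HPLC before and after the run.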

Data set [4] can be described thus: Assay (IV) determination of solubility. It counts as physicochemical. The gist of the method: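 Solubility is measured across pH 3.0–8.0 by mixing a ~500 nmol/ml aqueous polypeptide stock 1:1 with 100 mM glycylglycine or bistrispropane buffers. Samples stand 18 hours at room temperature, then are centrifuged and the soluble concentration is determined by HPLC.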

Setting [5] is: Table 2, BHK amylin 3(a)-receptor/CRE-luc cells.
The mark [6] stands for this setting: bistrispropane buffer, pH 6, pH 6.0, read-out: Solubility pH 6.0.
[7] abbreviates: bistrispropane buffer, pH 6.5, pH 6.5, read-out: Solubility pH 6.5.
[8] abbreviates: bistrispropane buffer, pH 7, pH 7.0, read-out: Solubility pH 7.0.
Where [9] appears, read: bistrispropane buffer, pH 7.5, pH 7.5, read-out: Solubility pH 7.5.
Where [10] appears, read: bistrispropane buffer, pH 8, pH 8.0, read-out: Solubility pH 8.0.
Setting [11] is: glycylglycine buffer, pH 3, pH 3.0, read-out: Solubility pH 3.0.
[12] abbreviates: glycylglycine buffer, pH 4, pH 4.0, 18 hours at room temperature, Table 2, read-out: Solubility pH 4.0.
[13] abbreviates: glycylglycine buffer, pH 4, pH 4.0, read-out: Solubility pH 4.0.
Where [14] appears, read: glycylglycine buffer, pH 5, pH 5.0, read-out: Solubility pH 5.0.
The mark [15] stands for this setting: bistrispropane buffer, pH 7, pH 7.0, 18 hours at room temperature, Table 3, read-out: Solubility pH 7.0.

pEC50: −log10 of the molar value. Converted amounts (≈) assume the structure as drawn. Read-outs that look alike come from different tables or passages of the source. Starred links: 1 amine or outer side, 2 acyl side, 3 side chain; linkers in the order of their positions; H or OH if unused. Positions of bridges follow the written chain, without caps; N, C: chain ends. Residues, ends and D or L forms follow the SMILES beside them. *: point of attachment. C20 diacid = O=C(O)CCCCCCCCCCCCCCCCCCC(=O)*; γGlu = O=C(O)[C@H](CCC(=O)[*:2])N[*:1]

Take `CC[C@H](C)[C@H](NC(=O)[C@@H]1CCCN1C(=O)CNC(=O)[C@H](Cc1ccccc1)NC(=O)[C@H](CC(N)=O)NC(=O)[C@H](CC(N)=O)NC(=O)[C@H](CO)NC(=O)[C@H](CO)NC(=O)[C@H](Cc1c[nH]cn1)NC(=O)[C@H](Cc1c[nH]cn1)NC(=O)[C@H](CC(C)C)NC(=O)[C@H](Cc1ccccc1)NC(=O)[C@H](CCC(=O)O)NC(=O)[C@H](C)NC(=O)[C@H](CC(C)C)NC(=O)[C@H](CCCNC(=N)N)NC(=O)[C@H](CCC(N)=O)NC(=O)[C@@H](NC(=O)[C@H](C)NC(=O)[C@@H]1CSSC[C@H](NC(=O)[C@H](CCCCN)NC(=O)CC[C@H](NC(=O)CCCCCCCCCCCCCCCCCCC(=O)O)C(=O)O)C(=O)N[C@@H](CC(N)=O)C(=O)N[C@@H]([C@@H](C)O)C(=O)N[C@@H](C)C(=O)N[C@@H]([C@@H](C)O)C(=O)N1)[C@@H](C)O)C(=O)N[C@@H](CC(C)C)C(=O)N1CCC[C@H]1C(=O)N1CCC[C@H]1C(=O)N[C@H](C(=O)N[C@@H](CC(N)=O)C(=O)N[C@H](C(=O)NCC(=O)N[C@@H](CO)C(=O)N[C@@H](CC(N)=O)C(=O)N[C@@H](Cc1c[nH]cn1)C(=O)N[C@@H](Cc1ccc(O)cc1)C(N)=O)C(C)C)[C@@H](C)O` [Example 114, N-alpha-[(S)-4-Carboxy-4-(19-carboxynonadecanoylamino)butyryl]-[Glu14,His17,His36]-pramlintide] ({C20 diacid-γGlu}-KCNTATCATQRLAEFLHHSSNNFGPILPPTNVGSNHY-NH2; disulfide 2-7 (inferred)): the pEC50 (usually the EC50 on a negative log10 scale, so that one unit is a factor of ten) is 9.42 in data set [1] (setting [5]) and 9.95 in data set [2]. For the same compound, the “ThT pH 4.0 lag time” value in data set [3] is listed as above 45 h. Also, in data set [3], the “ThT pH 4.0 lag time (h)” value was above 45 h. Also, the solubility (in general, how much of the substance goes into solution per volume) at 18 h in data set [4] (setting [6]) is above 200 µM; in data set [4] (setting [7]), 73 µM (≈ 328 µg/mL); in data set [4] (setting [8]), 14 µM (≈ 62.9 µg/mL); in data set [4] (setting [9]) it was 31 µM (≈ 139 µg/mL); in data set [4] (setting [10]) it was 79 µM (≈ 355 µg/mL); in data set [4] (setting [11]) it was above 200 µM. Besides, the solubility at 18 h in data set [4] (setting [12]), in data set [4] (setting [13]) and in data set [4] (setting [14]) was above 200 µM throughout.

In the case of `CC[C@H](C)[C@H](NC(=O)[C@@H]1CCCN1C(=O)CNC(=O)[C@H](Cc1ccccc1)NC(=O)[C@H](CC(N)=O)NC(=O)[C@H](CC(N)=O)NC(=O)[C@H](CO)NC(=O)[C@H](CO)NC(=O)[C@H](Cc1c[nH]cn1)NC(=O)[C@@H](NC(=O)[C@H](CC(C)C)NC(=O)[C@H](Cc1ccccc1)NC(=O)[C@H](CC(N)=O)NC(=O)[C@H](C)NC(=O)[C@H](CC(C)C)NC(=O)[C@H](CCCNC(=N)N)NC(=O)[C@H](CCC(N)=O)NC(=O)[C@@H](NC(=O)[C@H](C)NC(=O)[C@@H]1CSSC[C@H](NC(=O)[C@H](CCCNC(=N)N)NC(=O)CNC(=O)CC[C@H](NC(=O)CCCCCCCCCCCCCCCCCCC(=O)O)C(=O)O)C(=O)N[C@@H](CC(N)=O)C(=O)N[C@@H]([C@@H](C)O)C(=O)N[C@@H](C)C(=O)N[C@@H]([C@@H](C)O)C(=O)N1)[C@@H](C)O)C(C)C)C(=O)N[C@@H](CC(C)C)C(=O)N1CCC[C@H]1C(=O)N1CCC[C@H]1C(=O)N[C@H](C(=O)N[C@@H](CC(N)=O)C(=O)N[C@H](C(=O)NCC(=O)N[C@@H](CO)C(=O)N[C@@H](CC(N)=O)C(=O)N[C@H](C(=O)N1CCC[C@H]1C(N)=O)[C@@H](C)O)C(C)C)[C@@H](C)O` [Example 103, N-alpha-[(S)-4-Carboxy-4-(19-carboxynonadecanoylamino)butyryl]-Gly-[Arg1,Pro37]-pramlintide] ({C20 diacid-γGlu}-GRCNTATCATQRLANFLVHSSNNFGPILPPTNVGSNTP-NH2; disulfide 3-8 (inferred)), the pEC50 was 10.28 in data set [1] (Table 6, human amylin receptor) and 10.12 in data set [2]. For the same compound, in data set [3], the “ThT pH 4.0 lag time (h)” value is reported as 1.3 h. Besides, the solubility at 18 h in data set [4] (setting [6]) is above 200 µM; in data set [4] (setting [7]) it was above 200 µM; in data set [4] (setting [8]), 199 µM (≈ 880 µg/mL); in data set [4] (setting [9]), above 200 µM; in data set [4] (setting [10]), above 200 µM; in data set [4] (setting [11]), above 200 µM. In addition, the solubility at 18 h in data set [4] (setting [13]) and in data set [4] (setting [14]) was above 200 µM each time.

In the case of `CC[C@H](C)[C@H](NC(=O)[C@@H]1CCCN1C(=O)CNC(=O)[C@H](Cc1ccccc1)NC(=O)[C@H](CC(N)=O)NC(=O)[C@H](CC(N)=O)NC(=O)[C@H](CO)NC(=O)[C@H](CO)NC(=O)[C@H](CCCNC(=N)N)NC(=O)[C@H](Cc1c[nH]cn1)NC(=O)[C@H](CC(C)C)NC(=O)[C@H](Cc1ccccc1)NC(=O)[C@H](CCC(=O)O)NC(=O)[C@H](C)NC(=O)[C@H](CC(C)C)NC(=O)[C@H](CCCNC(=N)N)NC(=O)[C@H](CCC(N)=O)NC(=O)[C@@H](NC(=O)[C@H](C)NC(=O)[C@@H]1CSSC[C@H](NC(=O)[C@H](CCCCN)NC(=O)CC[C@H](NC(=O)CCCCCCCCCCCCCCCCCCC(=O)O)C(=O)O)C(=O)N[C@@H](CC(N)=O)C(=O)N[C@@H]([C@@H](C)O)C(=O)N[C@@H](C)C(=O)N[C@@H]([C@@H](C)O)C(=O)N1)[C@@H](C)O)C(=O)N[C@@H](CC(C)C)C(=O)N1CCC[C@H]1C(=O)N1CCC[C@H]1C(=O)N[C@H](C(=O)N[C@@H](CC(N)=O)C(=O)N[C@H](C(=O)NCC(=O)N[C@@H](CO)C(=O)N[C@@H](CC(N)=O)C(=O)N[C@H](C(=O)N[C@@H](Cc1ccc(O)cc1)C(N)=O)[C@@H](C)O)C(C)C)[C@@H](C)O` [Example 79, N-alpha-[(S)-4-Carboxy-4-(19-carboxynonadecanoylamino)butyryl]-[Glu14,His17,Arg18]-pramlintide] ({C20 diacid-γGlu}-KCNTATCATQRLAEFLHRSSNNFGPILPPTNVGSNTY-NH2; disulfide 2-7 (inferred)), the negative-log EC50 (pEC50) was 10.25 in data set [1] (setting [5]) and 10.11 in data set [2]. Also, in data set [3], the “ThT pH 4.0 lag time (h)” value amounted to 16 h. Besides, the solubility at 18 h in data set [4] (setting [6]), in data set [4] (setting [7]), in data set [4] (setting [15]), in data set [4] (setting [8]), in data set [4] (setting [9]) and in data set [4] (setting [10]) was above 200 µM in each case. For the same compound, the solubility at 18 h in data set [4] (setting [11]), in data set [4] (setting [12]), in data set [4] (setting [13]) and in data set [4] (setting [14]) was above 200 µM throughout.

In the case of `CC[C@H](C)[C@H](NC(=O)[C@@H]1CCCN1C(=O)CNC(=O)[C@H](Cc1ccccc1)NC(=O)[C@H](CC(N)=O)NC(=O)[C@H](CC(N)=O)NC(=O)[C@H](CO)NC(=O)[C@H](CO)NC(=O)[C@H](Cc1c[nH]cn1)NC(=O)[C@H](Cc1c[nH]cn1)NC(=O)[C@H](CC(C)C)NC(=O)[C@H](Cc1ccccc1)NC(=O)[C@H](CCC(=O)O)NC(=O)[C@H](C)NC(=O)[C@H](CC(C)C)NC(=O)[C@H](CCCNC(=N)N)NC(=O)[C@H](CCC(N)=O)NC(=O)[C@@H](NC(=O)[C@H](C)NC(=O)[C@@H]1CSSC[C@H](NC(=O)[C@H](CCCCN)NC(=O)CNC(=O)CC[C@H](NC(=O)CCCCCCCCCCCCCCCCCCC(=O)O)C(=O)O)C(=O)N[C@@H](CC(N)=O)C(=O)N[C@@H]([C@@H](C)O)C(=O)N[C@@H](C)C(=O)N[C@@H]([C@@H](C)O)C(=O)N1)[C@@H](C)O)C(=O)N[C@@H](CC(C)C)C(=O)N1CCC[C@H]1C(=O)N1CCC[C@H]1C(=O)N[C@H](C(=O)N[C@@H](CC(N)=O)C(=O)N[C@H](C(=O)NCC(=O)N[C@@H](CO)C(=O)N[C@@H](Cc1c[nH]cn1)C(=O)N[C@H](C(=O)N[C@@H](Cc1ccc(O)cc1)C(N)=O)[C@@H](C)O)C(C)C)[C@@H](C)O` [Example 81, N-alpha-[(S)-4-Carboxy-4-(19-carboxynonadecanoylamino)butyryl]-Gly-[Glu14,His17,His35]-pramlintide] ({C20 diacid-γGlu}-GKCNTATCATQRLAEFLHHSSNNFGPILPPTNVGSHTY-NH2; disulfide 3-8 (inferred); C-terminus assumed), the negative-log EC50 (pEC50) was 10.02 in data set [1] (setting [5]) and 10.15 in data set [2]. Also, the “ThT pH 4.0 lag time (h)” value in data set [3] turned out to be 24 h. Also, the solubility at 18 h in data set [4] (setting [6]), in data set [4] (setting [7]), in data set [4] (setting [15]), in data set [4] (setting [8]), in data set [4] (setting [9]) and in data set [4] (setting [10]) was above 200 µM each time. For the same compound, the solubility at 18 h in data set [4] (setting [11]), in data set [4] (setting [12]), in data set [4] (setting [13]) and in data set [4] (setting [14]) was above 200 µM throughout.

The values above are taken from US8722849B2, “Polypeptides” (Novo Nordisk A/S, priority 2011, dated 2014).
